Measured values as given in US5952308A, “Mineral absorption promoting agent” (Pola Chemical Industries Inc., priority 1991, dated 1999).

Experiments:
hemoglobin = assay: Mineral absorption promoting effect test on animals (hemoglobin increase, iron utilization); assay type: in vivo, Wistar male rats
Description: Wistar male rats (body weight:80 g) were feeded for 3 weeks, giving iron-free feed, ferrous sulfate-added feed (iron: 12 ppm), or ferrous sulfate and oligogalacturonic acid-added feed (iron: 12 ppm, powder oligogalacturonic acid obtained in the preparation method 1=0.5%).
During the period, hemoglobin concentration in blood was measured every 7 days, and utilization ratios of iron in each of these feeds were compared, using hemoglobin increase (hemoglobin concentration in blood×blood volume) as an index.
Net increase of hemoglobin (number of tested rats = 10); unit: […]

Wistar rat = assay: Acute toxicity test of oligogalacturonic acid; settings: in vivo, po
Description: Acute toxicity test of oligogalacturonic acid
Animal: Wistar rat: One group comprising
10 each of male and female rats
Specimen: 50% oligogalacturonic acid aqueous
Oral forced administration
Dosage: Group 1 10 ml/kg

Row | Substance | Net increase of hemoglobin, 7th day (hemoglobin; 7th day, feed with iron 12 ppm, n = 10 rats, ± SD) [g] | Net increase of hemoglobin, 14th day (hemoglobin; 14th day, feed with iron 12 ppm, n = 10 rats, ± SD) [g] | Net increase of hemoglobin, 21st day (hemoglobin; 21st day, feed with iron 12 ppm, n = 10 rats, ± SD) [g] | Net increase of hemoglobin, at start (hemoglobin; at start, feed with iron 12 ppm, n = 10 rats, ± SD) [g] | Utilization ratio (hemoglobin; iron in feed, 3 weeks, index hemoglobin increase (hemoglobin concentration in blood×blood volume)) [%] | autopsy after 14 days (Wistar rat)
1 | ferrous sulfate | 0.2 ± 0.1 | 0.3 ± 0.1 | 0.4 ± 0.2 | 0 | 33 | –
2 | oligogalacturonic acid | – | – | – | – | – | no abnormal sign
